This note sets out measurements from patent US20260286297A1, “METHOD FOR PRODUCING GROUP 2 INNATE LYMPHOID CELLS” (KYOTO UNIVERSITY, priority 2023, published 2026).

In assay [1] the test system is hematopoietic precursor cells (derived from iPS cell line 1231A2). Briefly: Differentiation induction from iPS cell-derived HPCs to ILC2s, flow cytometry (Experiments 2 and 4). Format: cell-based, human. Conditions: line 1231A2 HPCs; for induction of ILC2-like cell populations (lineage marker-negative, GATA3-expressing, capacity to produce IL-13): CDK8 inhibitor in medium B Day 6-12 (Senexin A 3 μM; CCT-251921 100 nM), flow cytometry after 12 days; for differentiation induction into ILC2-like cells containing IL-10-producing cells: Condition 2 plus CDK8 inhibitor in medium B Day 6-12 (Compounds 1-3 1 μM, Compound 4 10 μM). The method, then: The HPCs prepared from the iPS cells in Experiment 1 were cultured to be differentiation-induced into ILC2s. Specifically, 2500 to 20000 HPC stock cells prepared from the line 1231A2 were seeded in a 96-well plate (Corning, 3799 or Iwaki, 3860-096) coated with 2.5 μg/mL Fc-DLL4 and 2.5 μg/mL RetroNectin™ (Day 0) and cultured at 37° C. in a 5% CO2 atmosphere under the medium conditions shown below for 12 days to be differentiation-induced. In the differentiation induction culture for 12 days, 100 μL of medium was added on Day 3, followed by medium replacement on Day 6 and Day 9. If the cells in each culture well are confluent after the medium replacement on Day 6 and Day 9, the cells in the well were suspended, 2-fold diluted, and reseeded in a new 96-well plate. In the cases of Conditions 2 to 4, IL-2 (BioLegend, 589108 or PeproTech, 200-02) was added to medium A at 200 U/mL. In the case of Condition 3, Senexin A (Selleck, S8520) was added to medium B at 3 μM as CDK8 inhibitor. In the case of Condition 4, CCT-251921 (MedChemExpress, HY-19984) was added to medium B at 100 nM as CDK8 inhibitor. The differentiated cells cultured as described above were stimulated at 37° C. in a 5% CO2 atmosphere for 4 to 6 hours using the following: • IL-1β (PeproTech, 200-01B), final concentration: 10 ng/ml. • IL-2, final concentration: 20 ng/ml. • IL-7, final concentration: 50 ng/ml. • IL-23 (BioLegend, 574106), final concentration: 20 ng/ml • IL-25 (IL-17E) (PeproTech, 200-24), final concentration: 20 ng/ml • eBioscience™ Cell Stimulation Cocktail (plus Protein transport inhibitor) (Thermo Fisher Scientific, 00-4975-03) The stimulated cells were subsequently stained and analyzed with an LSRFortessa™ Cell Analyzer (BD Biosciences) by flow cytometry. […] The present experiment confirmed the differentiation induction into ILC2s using multiple CDK8 inhibitors having different structures.
Background: In flow cytometry, cells or beads pass a laser one at a time.

Assay [2] deals with HPCs derived from the line Ff-101s04. The assay is described as follows: Differentiation induction from iPS cell-derived HPCs to ILC2s, different iPS cell line (Experiment 3). Format: cell-based, human. Conditions: HPCs from iPS line Ff-101s04; Condition 3 (3 μM Senexin A), Condition 4 (100 nM CCT-251921).
The test system of assay [3] is human cord blood-derived CD34-positive cells. The assay is described as follows: Differentiation induction from human cord blood-derived CD34-positive HPCs to ILC2s (Experiment 5). It counts as cell-based. Conditions: Condition 3 (3 μM Senexin A), flow cytometry on Day 19. The source says: In order to ascertain the versatility of the method for differentiation induction in Experiment 2, the present experiment confirmed the differentiation induction from HPCs derived from the human body to ILC2s. Specifically, ILC2s were differentiation-induced by culturing purchased human cord blood-derived CD34-positive cells (Lonza, 2C-101) with the methods of Condition 1, Condition 2, and Condition 3 in Experiment 2. In the present experiment, the medium was also replaced with the same medium as on Days 6 to 12 on Day 12 and Day 15 of the culture, and the cells in each culture well were 2-fold diluted and reseeded in the case where the cells in the culture well were confluent.

Assay [4] deals with iPS cell-derived HPCs differentiation culture. The assay is described as follows: Concentrations of cytokines in differentiation culture supernatant containing iPS cell-derived ILC2s (Experiment 6). It counts as cell-based, human. Conditions: Day 12 culture supernatant; Condition 3 versus Conditions 1 and 2. The source says: The culture supernatant of Day 12 of the culture was collected that was differentiation-induced under “Condition 1”, “Condition 2”, and “Condition 3” described in Experiment 2, followed by the quantification of concentrations of IL-10, IL-5, and amphiregulin in the culture supernatant with the following kits, respectively. Amphiregulin is a cytokine that plays a central role in the capacity of ILC2s to repair tissue. It is conceivable that ILC2s having the capacity to repair tissue were obtained in the case where amphiregulin increased in concentration. • IL-10: Human IL-10 immunoassay kit (PerkinElmer, AL218C) • IL-5: Human IL-5 immunoassay kit (PerkinElmer, AL267C) • Amphiregulin: Human Amphiregulin Quantikine ELISA Kit (R&D Systems, DAR00)
IL-10 and IL-5 were measured with an Envision (Revvity). Amphiregulin was measured with a Powerscan4 (DS pharma biomedical Co., LTD.).

On to `Cn1ncc2cc(-c3cnc(N)c(Cl)c3N3CCC4(CCNC4=O)CC3)ccc21` [CCT-251921], for which, in assay [1], the “induction of ILC2-like cell populations (lineage marker-negative, GATA3-expressing, capacity to produce IL-13)” value was “ILC2-like cell populations were induced” and the “differentiation induction into ILC2-like cells containing IL-10-producing cells” value is “observed”. In assay [2], the “differentiation induction of ILC2-like cells containing IL-10-producing cells” value was “ILC2-like cells containing IL-10-producing cells were differentiation-induced”.
Consider `N#Cc1ccc2ncnc(NCCc3ccccc3)c2c1` [Senexin A], for which, in assay [1], the “induction of ILC2-like cell populations (lineage marker-negative, GATA3-expressing, capacity to produce IL-13)” value was “ILC2-like cell populations were induced” and the “differentiation induction into ILC2-like cells containing IL-10-producing cells” value is recorded as “observed”. Besides, the “capacity of the induced ILC2-like cells to produce IL-10” value in assay [1] (Condition 3, 3 μM Senexin A in medium B Day 6-12) is on record as “had the capacity to produce IL-10”. The “differentiation induction of ILC2-like cells containing IL-10-producing cells” value in assay [3] is “ILC2-like cells containing IL-10-producing cells were differentiation-induced”. Also, in assay [2], the “differentiation induction of ILC2-like cells containing IL-10-producing cells” value was “ILC2-like cells containing IL-10-producing cells were differentiation-induced”. In assay [4], the “production of IL-5 in the culture supernatant” value is “enhancement of production”, the “production of IL-10 in the culture supernatant” value is on record as “enhancement of production” and the “production of amphiregulin in the culture supernatant” value is on record as “enhancement of production”.
